Read-outs that look alike come from different tables or passages of the source.
Target: PKM2 (Homo sapiens, UniProt P14618)
Assay: PKM2 Biochemical Assay
Details: for Max. Resp.: % maximum response in a biochemical assay as compared with Fructose 1,6-bisphosphate
[1] = read-out: PKM2 AC50, 2 nM PKM2, 75 μM ADP, 15 μM PEP, Kinase Glo

Sequence of PKM2 (P14618 whole entry): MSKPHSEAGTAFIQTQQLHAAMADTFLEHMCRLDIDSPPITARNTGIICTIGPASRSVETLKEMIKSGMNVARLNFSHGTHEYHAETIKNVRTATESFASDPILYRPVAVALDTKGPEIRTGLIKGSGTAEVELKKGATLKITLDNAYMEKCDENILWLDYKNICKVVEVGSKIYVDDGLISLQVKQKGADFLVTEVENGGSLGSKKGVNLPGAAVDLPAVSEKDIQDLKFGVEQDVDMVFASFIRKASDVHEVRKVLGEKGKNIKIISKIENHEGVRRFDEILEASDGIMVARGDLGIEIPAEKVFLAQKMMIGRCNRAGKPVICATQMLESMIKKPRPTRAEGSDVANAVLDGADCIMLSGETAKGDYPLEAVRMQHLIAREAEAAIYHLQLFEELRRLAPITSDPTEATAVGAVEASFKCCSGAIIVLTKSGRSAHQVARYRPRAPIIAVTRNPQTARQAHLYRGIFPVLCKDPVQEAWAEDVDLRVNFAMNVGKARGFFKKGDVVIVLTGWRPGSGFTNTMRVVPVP

SMILES | Max. Resp. | AC50 | AC50 [1]
N#Cc1cc(C(=O)N(Cc2ccc(O)cc2F)CC2CCC2)[nH]n1 [Example 2, 3-CYANO-N-(CYCLOBUTYLMETHYL)-N-(2-FLUORO-4-HYDROXYBENZYL)-1H-PYRAZOLE-5-CARBOXAMIDE] | 39% |  | 
Nc1cc(C(=O)N(Cc2ccc(O)cc2F)CC2CCC2)[nH]n1 [Example 3, 3-amino-N-(cyclobutylmethyl)-N-(2-fluoro-4-hydroxybenzyl)-1H-pyrazole-5-carboxamide] | 45% |  | 
CC(c1ccccc1)N(CC1CCC1)C(=O)c1cc(Br)n[nH]1 (stereo not shown) [Example 4, 3-bromo-N-(cyclobutylmethyl)-N-(1-phenylethyl)-1H-pyrazole-5-carboxamide] | 52% | 1480 nM | 
CC(c1ccccc1)N(CC1CCC1)C(=O)c1cc(C(F)(F)F)n[nH]1 (stereo not shown) [Example 5, 3-trifluoromethyl-N-(cyclobutylmethyl)-N-(1-phenylethyl)-1H-pyrazole-5-carboxamide] | 106% |  | 
O=C(c1cc(C(F)(F)F)n[nH]1)N(Cc1cccc2[nH]ccc12)CC1CCC1 [Example 6, N-((1H-indol-4-yl)methyl)-N-(cyclobutylmethyl)-3-(trifluoromethyl)-1H-pyrazole-5-carboxamide] | 100% |  | 213 nM
O=C(c1cc(Cl)n[nH]1)N(Cc1cccc2[nH]c(=O)sc12)CC1CCC1 [Example 9, 3-Chloro-N-(cyclobutylmethyl)-N-((2-oxo-2,3-dihydrobenzo[d]thiazol-7-yl)methyl)-1H-pyrazole-5-carboxamide] | 80% |  | 
O=C(c1cc(Br)n[nH]1)N(Cc1cccc2[nH]c(=O)sc12)CC1CCC1 [Example 10, 3-bromo-N-(cyclobutylmethyl)-N-((2-oxo-2,3-dihydrobenzo[d]thiazol-7-yl)methyl)-1H-pyrazole-5-carboxamide] | 127% |  | 
O=C(c1cc(Br)n[nH]1)N(Cc1ccc(O)cc1F)CC1CNC1 [Example 11, N-(azetidin-3-ylmethyl)-3-bromo-N-(2-fluoro-4-hydroxybenzyl)-1H-pyrazole-5-carboxamide] | 61% |  | 
O=C(c1cc(C(F)(F)F)n[nH]1)N(Cc1cccc2[nH]ccc12)CC1COC1 [Example 12] | 101% |  | 
O=C(c1cc(C(F)(F)F)n[nH]1)N(Cc1cccc2c1CCN2)CC1CCC1 [Example 14, N-(cyclobutylmethyl)-N-(indolin-4-ylmethyl)-3-(trifluoromethyl)-1H-pyrazole-5-carboxamide] | 81% |  | 1700 nM
O=C(c1cc(C(F)(F)F)n[nH]1)N(Cc1ccc(O)cc1F)CC1COC1 [Example 15] | 102% |  | 
O=C(c1cc(C(F)(F)F)n[nH]1)N(Cc1ccccc1F)c1ncco1 [Example 25] | 35% |  | 
O=C(c1cc(C(F)(F)F)n[nH]1)N(CCC1CCOC1)Cc1ccc(O)cc1F (stereo not shown) [Example 34] | 109% |  | 
O=C(c1cc(C(F)(F)F)n[nH]1)N(CCC1CCOC1)Cc1c(F)cccc1F (stereo not shown) [Example 40] | 114% |  | 
CO[C@H]1CC[C@H](N(Cc2cccc(F)c2)C(=O)c2cc(C(F)(F)F)n[nH]2)CC1 [Example 48] | 80% |  | 
CO[C@H]1CC[C@H](N(Cc2c(F)cccc2F)C(=O)c2cc(C(F)(F)F)n[nH]2)CC1 [Example 49] | 122% |  | 
CO[C@H]1CC[C@H](N(Cc2cc(F)ccc2F)C(=O)c2cc(C(F)(F)F)n[nH]2)CC1 [Example 50] | 90% |  | 
CO[C@H]1CC[C@H](N(Cc2cc(F)cc(F)c2)C(=O)c2cc(C(F)(F)F)n[nH]2)CC1 [Example 51] | 31% |  | 
CO[C@H]1CC[C@H](N(Cc2ncccc2Cl)C(=O)c2cc(C(F)(F)F)n[nH]2)CC1 [Example 56] | 48% |  | 
O=C(c1cc(C(F)(F)F)n[nH]1)N(CCC1CCS(=O)(=O)C1)Cc1c(F)cccc1F (stereo not shown) [Example 66] | 102% |  | 
O=C(c1cc(C(F)(F)F)n[nH]1)N(CCC1CCS(=O)(=O)C1)Cc1cccc(F)c1 (stereo not shown) [Example 67] | 95% |  | 
O=C(c1cc(C(F)(F)F)n[nH]1)N(CCC1CCS(=O)(=O)C1)Cc1cc(F)cc(F)c1 (stereo not shown) [Example 69] | 74% |  | 
O=C(c1cc(C(F)(F)F)n[nH]1)N(CCC1CCS(=O)(=O)C1)Cc1cc(F)ccc1F (stereo not shown) [Example 70] | 91% |  | 
O=C(c1cc(C(F)(F)F)n[nH]1)N(CCC1CCS(=O)(=O)C1)Cc1ccc(O)cc1F (stereo not shown) [Example 76] | 93% |  | 
O=C(c1cc(Cl)n[nH]1)N(CCC1CCSCC1)Cc1ccccc1F [Example 80] | 46% |  | 
O=C(c1cc(Cl)n[nH]1)N(CCC1CCS(=O)(=O)CC1)Cc1ccccc1F [Example 81] | 72% |  | 
O=C(c1cc(Br)n[nH]1)N(CCC1CCSCC1)Cc1ccccc1F [Example 82] | 74% |  | 

Next, values leading:

Max. Resp. | AC50 | AC50 [1] | SMILES
33% |  |  | CC(C)(C)CN(Cc1cccc2[nH]ccc12)C(=O)c1cc(C(F)(F)F)n[nH]1 [Example 13]
22% |  |  | CCCC(C)N(Cc1ccccc1)C(=O)c1cc(C(F)(F)F)n[nH]1 (stereo not shown) [Example 16]
76% |  |  | CCCCCN(Cc1ccccc1)C(=O)c1cc(C(F)(F)F)n[nH]1 [Example 19]
70% |  |  | O=C(c1cc(C(F)(F)F)n[nH]1)N(Cc1ccccc1F)CC1COC1 [Example 20]
75% |  |  | COCCCN(Cc1ccccc1F)C(=O)c1cc(C(F)(F)F)n[nH]1 [Example 23]
100% |  |  | CCOCCN(Cc1ccc(O)cc1F)C(=O)c1cc(C(F)(F)F)n[nH]1 [Example 24]
99% |  |  | O=C(c1cc(C(F)(F)F)n[nH]1)N(CCC1CCOC1)Cc1ccccc1F (stereo not shown) [Example 26]
47% |  |  | O=C(c1cc(C(F)(F)F)n[nH]1)N(Cc1ccccc1Cl)CC1COC1 [Example 27]
87% | 4640 nM |  | COCCCN(Cc1ccccc1Cl)C(=O)c1cc(C(F)(F)F)n[nH]1 [Example 29]
72% | 9770 nM |  | COCCCN(Cc1ccccc1F)C(=O)c1cc(C(F)(F)F)n[nH]1 [Example 30]
82% |  |  | COCCCN(Cc1ccccc1Cl)C(=O)c1cc(C(F)(F)F)n[nH]1 [Example 31]
107% |  |  | O=C(c1cc(C(F)(F)F)n[nH]1)N(CCC1CCOCC1)Cc1ccccc1Cl [Example 32]
81% |  |  | O=C(c1cc(C(F)(F)F)n[nH]1)N(CCC1CCOC1)Cc1c(Cl)cccc1Cl (stereo not shown) [Example 33]
59% |  |  | O=C(c1cc(C(F)(F)F)n[nH]1)N(Cc1ccccc1Cl)C1CCOCC1 [Example 35]
88% |  |  | O=C(c1cc(C(F)(F)F)n[nH]1)N(CCC1CCCOC1)Cc1ccccc1Cl (stereo not shown) [Example 36]
37% |  |  | CC(C)OCCN(Cc1ccccc1Cl)C(=O)c1cc(C(F)(F)F)n[nH]1 [Example 37]
47% |  |  | CCOCCCN(Cc1ccccc1Cl)C(=O)c1cc(C(F)(F)F)n[nH]1 [Example 38]
30% |  |  | O=C(c1cc(C(F)(F)F)n[nH]1)N(CCOC1CCCC1)Cc1ccccc1F [Example 39]
118% |  |  | O=C(c1cc(C(F)(F)F)n[nH]1)N(CCC1CCOCC1)Cc1ccccc1F [Example 41]

Max. Resp. | AC50 | AC50 [1] | SMILES
76% |  |  | CCOCCN(Cc1c(Cl)cccc1Cl)C(=O)c1cc(C(F)(F)F)n[nH]1 [Example 42]
110% |  |  | O=C(c1cc(C(F)(F)F)n[nH]1)N(CCC1CCOC1)Cc1ccccc1Cl (stereo not shown) [Example 43]
32% |  |  | O=C(c1cc(C(F)(F)F)n[nH]1)N(CCC1CCCCO1)Cc1ccccc1Cl (stereo not shown) [Example 44]
52% |  |  | O=C(c1cc(C(F)(F)F)n[nH]1)N(Cc1ccccc1F)CC1CCOCC1 [Example 45]
70% |  |  | O=C(c1cc(C(F)(F)F)n[nH]1)N(CCC1CCCO1)Cc1ccccc1F (stereo not shown) [Example 46]
100% |  |  | CO[C@H]1CC[C@H](N(Cc2ccccc2Cl)C(=O)c2cc(C(F)(F)F)n[nH]2)CC1 [Example 52]
63% |  |  | CC(C)O[C@H]1CC[C@H](N(Cc2ccccc2Cl)C(=O)c2cc(C(F)(F)F)n[nH]2)CC1 [Example 53]
101% |  |  | CCO[C@H]1CC[C@H](N(Cc2ccccc2F)C(=O)c2cc(C(F)(F)F)n[nH]2)CC1 [Example 55]
100% |  |  | O=C(c1cc(C(F)(F)F)n[nH]1)N(CCC1CCC2(CC1)OCCO2)Cc1ccccc1F [Example 59, N-(2-(1,4-dioxaspiro[4.5]decan-8-yl)ethyl)-N-(2-fluorobenzyl)-3-(trifluoromethyl)-1H-pyrazole-5-carboxamide]
105% |  |  | O=C1CCC(CCN(Cc2ccccc2F)C(=O)c2cc(C(F)(F)F)n[nH]2)CC1 [Example 60, N-(2-fluorobenzyl)-N-(2-(4-oxocyclohexyl)ethyl)-3-(trifluoromethyl)-1H-pyrazole-5-carboxamide]
87% |  |  | O=C(c1cc(C(F)(F)F)n[nH]1)N(CCC1CCS(=O)(=O)C1)Cc1ccccc1F (stereo not shown) [Example 63]
71% |  |  | O=C(c1cc(C(F)(F)F)n[nH]1)N(CCC1CCS(=O)(=O)C1)Cc1c(Cl)cccc1Cl (stereo not shown) [Example 64]
103% |  |  | O=C(c1cc(C(F)(F)F)n[nH]1)N(CCC1CCS(=O)(=O)C1)Cc1cccc(F)c1F (stereo not shown) [Example 68]
71% |  |  | O=C(c1cc(C(F)(F)F)n[nH]1)N(Cc1ccccc1F)CC1CCS(=O)(=O)CC1 [Example 71]
22% |  |  | O=C(c1cc(C(F)(F)F)n[nH]1)N(Cc1ccccc1Cl)CC1CCS(=O)(=O)CC1 [Example 72]
79% |  |  | O=C(c1cc(C(F)(F)F)n[nH]1)N(CCC1CCSCC1)Cc1ccccc1Cl [Example 73, N-(2-chlorobenzyl)-N-(2-(tetrahydro-2H-thiopyran-4-yl)ethyl)-3-(trifluoromethyl)-1H-pyrazole-5-carboxamide]
95% |  |  | O=C(c1cc(C(F)(F)F)n[nH]1)N(CCC1CC[S+]([O-])CC1)Cc1ccccc1Cl (stereo not shown) [Example 74, N-(2-CHLOROBENZYL)-N-(2-(1-OXIDOTETRAHYDRO-2H-THIOPYRAN-4-YL)ETHYL)-3-(TRIFLUOROMETHYL)-1H-PYRAZOLE-5-CARBOXAMIDE]
43% |  |  | Nc1ccccc1CN(CCC1CCS(=O)(=O)C1)C(=O)c1cc(C(F)(F)F)n[nH]1 (stereo not shown) [Example 77]
95% |  |  | O=C(c1cc(C(F)(F)F)n[nH]1)N(CCC1CCSCC1)Cc1ccccc1F [Example 79]

— US10766865B2, “PKM2 modulators and methods for their use” (TOLERO PHARMACEUTICALS, INC., priority 2012, dated 2020)
